Test results reported in patent publication US20250197351A1, “C4-CARBOXYLIC ACID-S[…] DERIVATIVES AND METHODS OF USING” (priority 2022, published 2025).
“And” between values parts separate entries of the source, which are not always exact repeats. Equal entries are not always repeated.

Legend:
[1] = Metabolic stability / psilocin release in liver fractions; format: in vitro ADME, human; conditions: HLM and HLS9; 2.5 μM; up to 2 hours
From the text: (§1) A fundamental evaluation in drug development is the assessment of absorption, distribution, metabolism, excretion, and pharmacokinetics (ADME/PK) (Eddershaw et al., 2000, Drug Discovery Today 5(9): 409-414). […] Drug stability upon exposure to human liver microsomes and liver S9 cellular fractions is a common in vitro assay to approximate in vivo, liver-based drug metabolism (Richardson et al., 2016 Drug Metabolism Letters 10:83-90). First-pass metabolism is also often approximated in vitro using intestinal microsome and cellular S9 fractions (Hatley et al., 2017, Biopharmaceuticals & Drug Disposition, 38(2):155-160). […] Supernatants were analyzed for the presence of candidate prodrugs (parent molecule) and psilocin (the predicted metabolite) using Orbitrap LC-MS (Thermo Scientific) using previously described methods (Menéndez-Perdomo et al., 2021, J Mass Spectrom, 56: e4683). […] Assay concentrations (M) of both parent ‘prodrug’ molecule and psilocin metabolite, as quantified through LC-MS using routine standard curve procedures, were plotted as functions of assay time (minutes). The metabolism rate (T1/2) was determined from the metabolism curve plot using the one phase decay feature of GraphPad PRISM software (Version 9.2.0). The quantity of parent prodrug at time zero was set as 100%. […]

[2] = Stability in enzyme-free control buffer; format: in vitro ADME; conditions: 50 mM potassium phosphate buffer pH 7.4
From the text: A fundamental evaluation in drug development is the assessment of absorption, distribution, metabolism, excretion, and pharmacokinetics (ADME/PK) (Eddershaw et al., 2000, Drug Discovery Today 5(9): 409-414). […] Drug stability upon exposure to human liver microsomes and liver S9 cellular fractions is a common in vitro assay to approximate in vivo, liver-based drug metabolism (Richardson et al., 2016 Drug Metabolism Letters 10:83-90). First-pass metabolism is also often approximated in vitro using intestinal microsome and cellular S9 fractions (Hatley et al., 2017, Biopharmaceuticals & Drug Disposition, 38(2):155-160). […] Supernatants were analyzed for the presence of candidate prodrugs (parent molecule) and psilocin (the predicted metabolite) using Orbitrap LC-MS (Thermo Scientific) using previously described methods (Menéndez-Perdomo et al., 2021, J Mass Spectrom, 56: e4683). […] Assay concentrations (M) of both parent ‘prodrug’ molecule and psilocin metabolite, as quantified through LC-MS using routine standard curve procedures, were plotted as functions of assay time (minutes). The metabolism rate (T1/2) was determined from the metabolism curve plot using the one phase decay feature of GraphPad PRISM software (Version 9.2.0). The quantity of parent prodrug at time zero was set as 100%.

[3] = Metabolic stability / psilocin release in serum; format: in vitro ADME; conditions: 10% human AB serum
From the text: as §1

[4] = Mouse pharmacokinetic (PK) study, parent compound and psilocin metabolite in plasma; format: in vivo; conditions: for Plasma concentration of C(XX): LLOQ 0.25 ng/mL; for Plasma concentration: parent C(XX), BLQ = below 0.25 ng/mL; for AUC0-tlast/Dose of C(XX) / Cmax/Dose of C(XX) / AUC0-inf/Dose of C(XX): plasma
From the text: Briefly, the procedure was as follows. […] 19, 2022.

5-HT1A receptor = target: T1, 5-HT1A receptor (Homo sapiens, UniProt P08908); assay: cAMP-Glo assay of 5-HT1A receptor modulation, CHO-K1/5-HT1A/Ga15 (+5-HT1A) vs CHO-K1/Ga15 (−5-HT1A) cells; format: cell-based; conditions: +5-HT1A vs −5-HT1A CHO-K1 cells; 4 μM forskolin; increasing ligand concentration
T1 construct: host or cells: CHO-K1 (co-expressing Ga15)
T1 sequence (P08908 1-422): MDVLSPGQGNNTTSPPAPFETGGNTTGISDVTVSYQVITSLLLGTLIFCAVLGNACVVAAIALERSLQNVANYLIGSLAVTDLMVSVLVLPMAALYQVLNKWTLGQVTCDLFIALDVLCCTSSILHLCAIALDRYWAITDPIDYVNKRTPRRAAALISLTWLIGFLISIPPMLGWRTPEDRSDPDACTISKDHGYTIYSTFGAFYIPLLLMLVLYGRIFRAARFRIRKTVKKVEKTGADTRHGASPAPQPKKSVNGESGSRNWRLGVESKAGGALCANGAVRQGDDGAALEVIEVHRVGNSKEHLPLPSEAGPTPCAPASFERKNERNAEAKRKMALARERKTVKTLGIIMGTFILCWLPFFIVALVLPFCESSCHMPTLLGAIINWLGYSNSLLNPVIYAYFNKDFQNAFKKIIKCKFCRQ

5-HT2A receptor = 5-HT2A receptor (Homo sapiens, UniProt P28223); assay: [3H]ketanserin competition binding assay (SPA); conditions: 1 nM [3H]ketanserin; control ligands
[5] = target: T2, 5-HT2A receptor (5-HT2AR) (Mus musculus, UniProt P35363); assay: Drug-induced Head Twitch Response (HTR); format: in vivo; conditions: 1 mg/kg i.p., 15-to-30-minute window post-drug, relative to vehicle
T2 construct: host or cells: C57BL/6 mice, in vivo (neuronal receptor)

[6] = 3 mg/kg oral C(XX), individual mice, 3 mg/kg
[7] = 10 mg/kg oral C(XX), individual mice, 10 mg/kg

Chain of 5-HT2A receptor (P28223 whole entry): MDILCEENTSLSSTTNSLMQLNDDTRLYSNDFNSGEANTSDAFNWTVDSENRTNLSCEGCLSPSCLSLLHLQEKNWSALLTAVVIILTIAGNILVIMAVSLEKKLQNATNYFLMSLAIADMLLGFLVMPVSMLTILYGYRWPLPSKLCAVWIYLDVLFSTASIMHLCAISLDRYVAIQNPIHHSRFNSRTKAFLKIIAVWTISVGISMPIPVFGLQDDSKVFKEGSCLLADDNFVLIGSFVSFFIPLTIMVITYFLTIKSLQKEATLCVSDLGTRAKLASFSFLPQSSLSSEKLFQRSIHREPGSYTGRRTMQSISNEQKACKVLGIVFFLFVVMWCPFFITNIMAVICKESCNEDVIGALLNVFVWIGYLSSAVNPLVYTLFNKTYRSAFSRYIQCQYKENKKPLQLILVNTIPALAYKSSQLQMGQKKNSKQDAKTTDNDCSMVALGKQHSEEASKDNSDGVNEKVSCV
T2 sequence (P35363 whole entry): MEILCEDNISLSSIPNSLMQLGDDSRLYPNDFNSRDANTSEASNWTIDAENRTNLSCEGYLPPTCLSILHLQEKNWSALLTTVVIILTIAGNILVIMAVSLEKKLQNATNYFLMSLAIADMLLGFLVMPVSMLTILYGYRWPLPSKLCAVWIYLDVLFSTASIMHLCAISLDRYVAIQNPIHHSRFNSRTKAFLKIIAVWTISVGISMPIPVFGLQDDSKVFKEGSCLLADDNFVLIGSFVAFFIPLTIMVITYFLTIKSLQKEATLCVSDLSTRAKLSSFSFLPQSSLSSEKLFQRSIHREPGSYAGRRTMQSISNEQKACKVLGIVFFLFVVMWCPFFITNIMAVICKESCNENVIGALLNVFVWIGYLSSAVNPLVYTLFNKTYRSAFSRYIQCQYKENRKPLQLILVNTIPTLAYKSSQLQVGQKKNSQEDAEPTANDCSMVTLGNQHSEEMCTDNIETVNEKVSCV

In the case of `CN(C)CCc1c[nH]c2cccc(OP(=O)(O)O)c12` [psilocybin, reference compound], the “Metabolic stability and conversion to psilocin in liver fractions” value [1] is reported as “stable in liver fractions with no conversion to psilocin”, the “Stability in assay buffer” value [2] is reported as “stability of psilocybin was confirmed in assay buffer” and the “Metabolic stability and conversion to psilocin in serum” value [3] is reported as “stable in serum with no conversion to psilocin”. For the same compound, the “Detection of parent compound in plasma after i.v. administration” value ([4]; mouse, 1 mg/kg i.v.) was “only detectable in i.v. administered animals”, the “Plasma concentration of parent compound” value ([4]; mouse, 1 mg/kg i.v., 0.25 h, individual animals, BLQ = below 0.5 ng/mL (C(V)), 1 mg/kg) was 3.32 ng/mL and 8.95 ng/mL and 27.2 ng/mL and the “Plasma concentration of parent compound” value ([4]; mouse, 1 mg/kg i.v., 0.5 h, individual animals, BLQ = below 0.5 ng/mL (C(V)), 1 mg/kg) was “No Peak and 2.35 ng/mL and 6.21 ng/mL”. For the same compound, the “Plasma concentration of parent compound” value ([4]; mouse, 1 mg/kg i.v., 1 h, individual animals, 1 mg/kg) was “No Peak”, the “Plasma concentration of parent compound” value ([4]; mouse, 1 mg/kg i.v., 2 h, individual animals) was “No Peak” and the “Plasma concentration of parent compound” value ([4]; mouse, 1 mg/kg i.v., 4 h, individual animals) was “No Peak”. For the same compound, the “Plasma concentration of parent compound” value ([4]; mouse, 1 mg/kg i.v., 6 h, individual animals) was “No Peak”, the “Plasma concentration of parent compound” value ([4]; mouse, 1 mg/kg i.v., 8 h, individual animals, 1 mg/kg) was “No Peak” and the “Detection of parent compound in plasma after oral administration” value ([4]; mouse, orally administered, any dose (1, 3, 10 mg/kg)) was “not detectable”. The “Plasma concentration of psilocin” value ([4]; mouse, prodrug 1 mg/kg p.o. (psilocybin: 1.56 mg/kg), 24 h, individual animals, BLQ = below 0.2 ng/mL) was “BLQ” and the “Plasma concentration of psilocin” value ([4]; mouse, prodrug 3 mg/kg p.o., 24 h, individual animals, BLQ = below 0.2 ng/mL) was “BLQ”.
In the case of `CN(C)CCc1c[nH]c2cccc(O)c12` [psilocin, reference compound], the “5-HT1A receptor modulation (reduction of forskolin-induced cAMP)” value (5-HT1A receptor) is reported as “reduction in cAMP levels” and the “Binding at 5-HT2A receptor in competition assay” value (5-HT2A receptor) is reported as “binding”.
In the case of `N[C@@H](Cc1c[nH]c2ccccc12)C(=O)O` [tryptophan, reference compound], the “5-HT1A receptor modulation (reduction of forskolin-induced cAMP)” value (5-HT1A receptor) is reported as “no reduction in cellular cAMP levels” and the “Binding at 5-HT2A receptor in competition assay” value (5-HT2A receptor) is reported as “no binding”.
For `CN(C)CCc1c[nH]c2cccc(OC(=O)c3cccc4c3OCCO4)c12` [C(XX)], the “5-HT1A receptor modulation (reduction of forskolin-induced cAMP)” value (5-HT1A receptor) was “significant receptor modulation”, the “Head Twitch Response (HTR) incidence” value [5] was “Elevated incidences of HTR” and the “Plasma concentration of psilocin” value ([4]; 1 mg/kg i.v. C(XX), 8 h, individual mice, LLOQ 0.5 ng/mL) was “BLQ”. The “Plasma concentration of psilocin” value ([4]; 1 mg/kg oral C(XX), 24 h, individual mice, LLOQ 0.5 ng/mL) was “BLQ”, the “Plasma concentration of C(XX)” value ([4]; 3 mg/kg oral C(XX), 0.25 h, individual mice) was 1.72 ng/mL and the “Plasma concentration of C(XX)” value ([4]; 3 mg/kg oral C(XX), 0.5 h, individual mice) was 1.13 ng/mL. The “Plasma concentration of C(XX)” value ([4]; 3 mg/kg oral C(XX), 4 h, individual mice) was “No Peak (2×) and BLQ”, the “Plasma concentration of C(XX)” value ([4]; 3 mg/kg oral C(XX), 6 h, individual mice) was “No Peak and BLQ (2×)” and the “Plasma concentration of C(XX)” value ([4]; 3 mg/kg oral C(XX), 8 h, individual mice) was “No Peak and BLQ (2×)”. For the same compound, the “Plasma concentration of C(XX)” value ([4]; 3 mg/kg oral C(XX), 24 h, individual mice) was “No Peak”, the “Plasma concentration of psilocin” value ([4]; 3 mg/kg oral C(XX), 24 h, individual mice, LLOQ 0.5 ng/mL) was “BLQ” and the “F of C(XX)” value ([4]; 3 mg/kg oral C(XX), individual mice) was 0.816% and 1.08% and 0.962%. For the same compound, the “F of C(XX)” value ([4]; 3 mg/kg oral C(XX), mean) was 0.953 ± 0.132%, the “Plasma concentration of C(XX)” value ([4]; 10 mg/kg oral C(XX), 0.25 h, individual mice) was 10.3 ng/mL and the “Plasma concentration of C(XX)” value ([4]; 10 mg/kg oral C(XX), 2 h, individual mice) was 1.08 ng/mL. For the same compound, the “Plasma concentration of C(XX)” value ([4]; 10 mg/kg oral C(XX), 4 h, individual mice) was “BLQ”, the “Plasma concentration of C(XX)” value ([4]; 10 mg/kg oral C(XX), 6 h, individual mice) was “BLQ” and the “Plasma concentration of C(XX)” value ([4]; 10 mg/kg oral C(XX), 8 h, individual mice) was “BLQ”. The “Plasma concentration of C(XX)” value ([4]; 10 mg/kg oral C(XX), 24 h, individual mice) was “No Peak”, the “Plasma concentration of psilocin” value ([4]; 10 mg/kg oral C(XX), 24 h, individual mice, LLOQ 0.5 ng/mL) was “BLQ” and the Plasma concentration ([4]; 1 mg/kg i.v., 2 h, each animal, 1 mg/kg) was 1.14 ng/mL. For the same compound, the Plasma concentration ([4]; 1 mg/kg i.v., 6 h, each animal) was “BLQ”, the Plasma concentration ([4]; 1 mg/kg i.v., 8 h, each animal, 1 mg/kg) was “BLQ and No (2×)” and the Plasma concentration ([4]; 1 mg/kg p.o., 2 h, each animal) was “BLQ”. The Plasma concentration ([4]; 1 mg/kg p.o., 4 h, each animal) was “BLQ”, the Plasma concentration ([4]; 1 mg/kg p.o., 6 h, each animal, 1 mg/kg) was “No Peak (2×) and BLQ” and the Plasma concentration ([4]; 1 mg/kg p.o., 8 h, each animal, 1 mg/kg) was “No Peak (2×) and BLQ”. The Plasma concentration ([4]; 1 mg/kg p.o., 24 h, each animal) was “No Peak”, the AUC0-tlast/Dose ([4]; parent compound in plasma, 1 mg/kg i.v., each animal, 1 mg/kg) was 48.0 kg·ng·h/mL/mg and the “AUC0-tlast/Dose of C(XX)” value ([4]; 1 mg/kg i.v. C(XX), mean) was 52.8 ± 8.30 kg·ng·h/mL/mg. The “Cmax/Dose of C(XX)” value ([4]; 1 mg/kg p.o. C(XX), mean) was 0.620 ± 0.0996 kg·ng/mL/mg, the “AUC0-inf/Dose of C(XX)” value [4, 6] was 0.433 kg·ng·h/mL/mg and 0.572 kg·ng·h/mL/mg and 0.510 kg·ng·h/mL/mg and the “AUC0-tlast/Dose of C(XX)” value [4, 6] was 0.406 kg·ng·h/mL/mg and 0.494 kg·ng·h/mL/mg and 0.474 kg·ng·h/mL/mg. For the same compound, the “Cmax/Dose of C(XX)” value [4, 6] was 0.497 kg·ng/mL/mg and 0.573 kg·ng/mL/mg and 0.643 kg·ng/mL/mg, the “AUC0-inf/Dose of C(XX)” value ([4]; 3 mg/kg oral C(XX), mean) was 0.505 ± 0.0700 kg·ng·h/mL/mg and the “AUC0-tlast/Dose of C(XX)” value ([4]; 3 mg/kg oral C(XX), mean) was 0.458 ± 0.0457 kg·ng·h/mL/mg. For the same compound, the “Cmax/Dose of C(XX)” value ([4]; 3 mg/kg oral C(XX), mean) was 0.571 ± 0.0734 kg·ng/mL/mg, the “AUC0-tlast/Dose of C(XX)” value [4, 7] was 0.565 kg·ng·h/mL/mg and 0.499 kg·ng·h/mL/mg and 0.916 kg·ng·h/mL/mg and the “Cmax/Dose of C(XX)” value [4, 7] was 0.299 kg·ng/mL/mg and 0.912 kg·ng/mL/mg and 1.03 kg·ng/mL/mg. For the same compound, the “AUC0-tlast/Dose of C(XX)” value ([4]; 10 mg/kg oral C(XX), mean) was 0.660 ± 0.224 kg·ng·h/mL/mg and the “Cmax/Dose of C(XX)” value ([4]; 10 mg/kg oral C(XX), mean) was 0.747 ± 0.392 kg·ng/mL/mg.
